Experimental data published in ChEMBL document CHEMBL1128203, “Synthesis and structure-activity relationships of acetylcholinesterase inhibitors: 1-benzyl-4-[(5,6-dimethoxy-1-oxoindan-2-yl)methyl]piperidine hydrochloride and related compounds” (J Med Chem, 1995).

Each compound was assayed against T1, Acetylcholinesterase (Mus musculus, UniProt P21836).
T1 sequence (P21836 whole entry): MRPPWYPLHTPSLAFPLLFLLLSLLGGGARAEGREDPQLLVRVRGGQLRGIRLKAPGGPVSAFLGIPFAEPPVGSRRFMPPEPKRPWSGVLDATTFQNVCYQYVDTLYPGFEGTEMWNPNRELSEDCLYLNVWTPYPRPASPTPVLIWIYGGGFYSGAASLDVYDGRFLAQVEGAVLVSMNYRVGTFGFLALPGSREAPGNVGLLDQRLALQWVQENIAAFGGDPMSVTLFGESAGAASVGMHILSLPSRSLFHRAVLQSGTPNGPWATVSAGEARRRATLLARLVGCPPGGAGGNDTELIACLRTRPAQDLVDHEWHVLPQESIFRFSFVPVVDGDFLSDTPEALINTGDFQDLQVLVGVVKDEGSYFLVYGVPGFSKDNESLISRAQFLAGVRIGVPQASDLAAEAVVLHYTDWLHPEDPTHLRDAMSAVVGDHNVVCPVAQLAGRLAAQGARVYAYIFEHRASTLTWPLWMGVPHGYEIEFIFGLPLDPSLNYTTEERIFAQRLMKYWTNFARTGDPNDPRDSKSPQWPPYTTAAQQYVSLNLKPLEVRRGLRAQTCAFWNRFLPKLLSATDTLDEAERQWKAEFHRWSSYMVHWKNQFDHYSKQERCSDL
Description: Inhibitory activity against acetylcholinesterase
Work on `CNC(=O)Oc1ccc2c(c1)[C@]1(C)CCN(C)[C@@H]1N2C` [PHYSOSTIGMINE] yielded an IC50 of 0.00068 µM.
For `COc1ccc2c(c1OC)C(=O)C(CC1CCN(Cc3ccccc3)CC1)C2` (stereo not drawn), the IC50 was 0.085 µM.
Compound `COc1ccc(OC)c2c1CC(CC1CCN(Cc3ccccc3)CC1)C2=O` (stereo not drawn) has an IC50 of 0.036 µM.
For `COc1cc2c(cc1OC)C(=O)/C(=C\C1CCN(Cc3ccccc3)CC1)C2`, the IC50 was 0.013 µM.
`COc1cc2c(cc1OC)C(=O)C(CC1CCN(Cc3cccc(C)c3)CC1)C2` (stereo not drawn) gave an IC50 of 0.002 µM.
With `O=C1c2ccccc2CC1CCC1CCN(Cc2ccccc2)CC1` (stereo not drawn) the IC50 was 0.23 µM.
`COc1cc2c(cc1OC)C(=O)C(CCCC1CCN(Cc3ccccc3)CC1)C2` (stereo not drawn) was tested, and the IC50 was 0.0015 µM.
Compound `COc1ccc2c(c1OC)CC(CC1CCN(Cc3ccccc3)CC1)C2=O` (stereo not drawn) has an IC50 of 0.02 µM.
